Assay results: the supplement of paper PMC10883282
± gives the standard deviation of the averaged measurements.

Assays:
Assay in all cases: relative viability vs DMSO control (72 h) (fraction); higher = more viable cells
[1] = tested on: SYO-1
In short: (§1)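 Sarcoma cell lines were seeded in 384-well plates at densities chosen for 80–90% confluence, then 24 h later given 2.5 µl of serially diluted compound drawn from source plates spanning 10 mM to 0.0002 mM. They were held 72 h at 37 °C, 5% CO2, with 0.1% DMSO vehicle and a 5 µM positive control included. Relative viability was read with ATPLite as percent growth and averaged over up to triplicate wells. Rescaling placed full at 1 and none at 0.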

[2] = tested on: SW872
In short: as §1

[3] = tested on: KHOS-NP
In short: as §1

[4] = tested on: SW684
In short: as §1

[5] = tested on: HT1080
In short: as §1

[6] = tested on: G401
In short: as §1

[7] = tested on: SK-LMS-1
In short: as §1

[8] = tested on: VA-ES-BJ
In short: as §1

[9] = tested on: HS729
In short: as §1

[10] = tested on: A204
In short: as §1

[11] = tested on: SW1353
In short: as §1

[12] = tested on: MES-SA
In short: as §1

Compound: CCOc1cc2ncc(C#N)c(Nc3ccc(OCc4ccccn4)c(Cl)c3)c2cc1NC(=O)/C=C/[C@H]1CCCN1C [Pyrotinib]
- relative viability ([1]; 5.081 pM): 1.01 ± 0.024
- relative viability ([1]; 15.24 pM): 0.951 ± 0.038
- relative viability ([1]; 45.72 pM): 0.958 ± 0.014
- relative viability ([1]; 0.000137174 µM): 0.943 ± 0.043
- relative viability ([1]; 0.000411523 µM): 0.92 ± 0.062
- relative viability ([1]; 0.00123457 µM): 0.948 ± 0.067
- relative viability ([1]; 0.0037037 µM): 0.858 ± 0.059
- relative viability ([1]; 0.0111111 µM): 0.9 ± 0.025
- relative viability ([1]; 0.0333333 µM): 0.896 ± 0.059
- relative viability ([1]; 0.1 µM): 0.862 ± 0.034
- relative viability ([1]; 0.3 µM): 0.89 ± 0.07
- relative viability ([2]; 5.081 pM): 1.05 ± 0.049
- relative viability ([2]; 15.24 pM): 1.06 ± 0.054
- relative viability ([2]; 45.72 pM): 1.06 ± 0.044
- relative viability ([2]; 0.000137174 µM): 1.06 ± 0.032
- relative viability ([2]; 0.000411523 µM): 1.07 ± 0.038
- relative viability ([2]; 0.00123457 µM): 1.05 ± 0.016
- relative viability ([2]; 0.0037037 µM): 0.987 ± 0.077
- relative viability ([2]; 0.0111111 µM): 1.01 ± 0.057
- relative viability ([2]; 0.0333333 µM): 1.04 ± 0.016
- relative viability ([2]; 0.1 µM): 0.987 ± 0.046
- relative viability ([2]; 0.3 µM): 0.913 ± 0.049
- relative viability ([3]; 5.081 pM): 1.08 ± 0.029
- relative viability ([3]; 15.24 pM): 1.12 ± 0.014
- relative viability ([3]; 45.72 pM): 1.08 ± 0.025
- relative viability ([3]; 0.000137174 µM): 1.11 ± 0.013
- relative viability ([3]; 0.000411523 µM): 1.07 ± 0.015
- relative viability ([3]; 0.00123457 µM): 1.09 ± 0.013
- relative viability ([3]; 0.0037037 µM): 1.07 ± 0.014
- relative viability ([3]; 0.0111111 µM): 1.1 ± 0.018
- relative viability ([3]; 0.0333333 µM): 1.073 ± 0.0071
- relative viability ([3]; 0.1 µM): 1.09 ± 0.036
- relative viability ([3]; 0.3 µM): 1.08 ± 0.039
- relative viability ([4]; 5.081 pM): 1.15 ± 0.079
- relative viability ([4]; 15.24 pM): 1.24 ± 0.029
- relative viability ([4]; 45.72 pM): 1.221 ± 0.0063
- relative viability ([4]; 0.000137174 µM): 1.188 ± 0.0051
- relative viability ([4]; 0.000411523 µM): 1.19 ± 0.025
- relative viability ([4]; 0.00123457 µM): 1.17 ± 0.033
- relative viability ([4]; 0.0037037 µM): 1.21 ± 0.048
- relative viability ([4]; 0.0111111 µM): 1.19 ± 0.12
- relative viability ([4]; 0.0333333 µM): 1.15 ± 0.056
- relative viability ([4]; 0.1 µM): 1.17 ± 0.051
- relative viability ([4]; 0.3 µM): 1.1 ± 0.036
- relative viability ([5]; 5.081 pM): 1.07 ± 0.012
- relative viability ([5]; 15.24 pM): 1.13 ± 0.054
- relative viability ([5]; 45.72 pM): 1.103 ± 0.0081
- relative viability ([5]; 0.000137174 µM): 1.13 ± 0.014
- relative viability ([5]; 0.000411523 µM): 1.11 ± 0.019
- relative viability ([5]; 0.00123457 µM): 1.06 ± 0.027
- relative viability ([5]; 0.0037037 µM): 1.12 ± 0.012
- relative viability ([5]; 0.0111111 µM): 1.09 ± 0.021
- relative viability ([5]; 0.0333333 µM): 1.078 ± 0.01
- relative viability ([5]; 0.1 µM): 1.07 ± 0.03
- relative viability ([5]; 0.3 µM): 1.08 ± 0.052
- relative viability ([6]; 5.081 pM): 1.04 ± 0.035
- relative viability ([6]; 15.24 pM): 1.03 ± 0.016
- relative viability ([6]; 45.72 pM): 1.03 ± 0.041
- relative viability ([6]; 0.000137174 µM): 1.05 ± 0.037
- relative viability ([6]; 0.000411523 µM): 1.06 ± 0.0079
- relative viability ([6]; 0.00123457 µM): 1.02 ± 0.035
- relative viability ([6]; 0.0037037 µM): 1.02 ± 0.021
- relative viability ([6]; 0.0111111 µM): 1.024 ± 0.0064
- relative viability ([6]; 0.0333333 µM): 1.02 ± 0.049
- relative viability ([6]; 0.1 µM): 1.02 ± 0.049
- relative viability ([6]; 0.3 µM): 1.01 ± 0.013
- relative viability ([7]; 5.081 pM): 1.06 ± 0.042
- relative viability ([7]; 15.24 pM): 1.06 ± 0.049
- relative viability ([7]; 45.72 pM): 1.06 ± 0.037
- relative viability ([7]; 0.000137174 µM): 1.07 ± 0.06
- relative viability ([7]; 0.000411523 µM): 1.08 ± 0.03
- relative viability ([7]; 0.00123457 µM): 1.06 ± 0.036
- relative viability ([7]; 0.0037037 µM): 1.09 ± 0.067
- relative viability ([7]; 0.0111111 µM): 1.08 ± 0.035
- relative viability ([7]; 0.0333333 µM): 1.07 ± 0.026
- relative viability ([7]; 0.1 µM): 1.03 ± 0.049
- relative viability ([7]; 0.3 µM): 1 ± 0.014
- relative viability ([8]; 5.081 pM): 1.06 ± 0.045
- relative viability ([8]; 15.24 pM): 1.05 ± 0.021
- relative viability ([8]; 45.72 pM): 1.02 ± 0.042
- relative viability ([8]; 0.000137174 µM): 1.04 ± 0.022
- relative viability ([8]; 0.000411523 µM): 0.99 ± 0.0086
- relative viability ([8]; 0.00123457 µM): 0.981 ± 0.038
- relative viability ([8]; 0.0037037 µM): 1.02 ± 0.013
- relative viability ([8]; 0.0111111 µM): 0.983 ± 0.025
- relative viability ([8]; 0.0333333 µM): 0.969 ± 0.042
- relative viability ([8]; 0.1 µM): 0.9689 ± 0.0074
- relative viability ([8]; 0.3 µM): 0.942 ± 0.037
- relative viability ([9]; 5.081 pM): 0.989 ± 0.038
- relative viability ([9]; 15.24 pM): 0.917 ± 0.048
- relative viability ([9]; 45.72 pM): 0.962 ± 0.06
- relative viability ([9]; 0.000137174 µM): 0.9073 ± 0.0027
- relative viability ([9]; 0.000411523 µM): 0.875 ± 0.048
- relative viability ([9]; 0.00123457 µM): 0.866 ± 0.061
- relative viability ([9]; 0.0037037 µM): 0.857 ± 0.036
- relative viability ([9]; 0.0111111 µM): 0.918 ± 0.043
- relative viability ([9]; 0.0333333 µM): 0.91 ± 0.069
- relative viability ([9]; 0.1 µM): 0.858 ± 0.009
- relative viability ([9]; 0.3 µM): 0.808 ± 0.011
- relative viability ([10]; 5.081 pM): 1.04 ± 0.042
- relative viability ([10]; 15.24 pM): 1.07 ± 0.064
- relative viability ([10]; 45.72 pM): 1.08 ± 0.048
- relative viability ([10]; 0.000137174 µM): 1.04 ± 0.025
- relative viability ([10]; 0.000411523 µM): 1.06 ± 0.071
- relative viability ([10]; 0.00123457 µM): 1.07 ± 0.034
- relative viability ([10]; 0.0037037 µM): 1.09 ± 0.069
- relative viability ([10]; 0.0111111 µM): 1.11 ± 0.043
- relative viability ([10]; 0.0333333 µM): 1.07 ± 0.032
- relative viability ([10]; 0.1 µM): 1.1 ± 0.052
- relative viability ([10]; 0.3 µM): 1.06 ± 0.013
- relative viability ([11]; 5.081 pM): 1.06 ± 0.036
- relative viability ([11]; 15.24 pM): 1.05 ± 0.025
- relative viability ([11]; 45.72 pM): 1.03 ± 0.023
- relative viability ([11]; 0.000137174 µM): 0.994 ± 0.018
- relative viability ([11]; 0.000411523 µM): 1.01 ± 0.027
- relative viability ([11]; 0.00123457 µM): 1.04 ± 0.041
- relative viability ([11]; 0.0037037 µM): 1.02 ± 0.031
- relative viability ([11]; 0.0111111 µM): 1.02 ± 0.089
- relative viability ([11]; 0.0333333 µM): 0.947 ± 0.033
- relative viability ([11]; 0.1 µM): 0.889 ± 0.026
- relative viability ([11]; 0.3 µM): 0.791 ± 0.029
- relative viability ([12]; 5.081 pM): 0.967 ± 0.018
- relative viability ([12]; 15.24 pM): 0.957 ± 0.026
- relative viability ([12]; 45.72 pM): 0.9512 ± 0.0085
- relative viability ([12]; 0.000137174 µM): 0.959 ± 0.036
- relative viability ([12]; 0.000411523 µM): 0.971 ± 0.043
- relative viability ([12]; 0.00123457 µM): 0.965 ± 0.024
- relative viability ([12]; 0.0037037 µM): 0.948 ± 0.023
- relative viability ([12]; 0.0111111 µM): 0.954 ± 0.022
- relative viability ([12]; 0.0333333 µM): 0.936 ± 0.051
- relative viability ([12]; 0.1 µM): 0.91 ± 0.039
- relative viability ([12]; 0.3 µM): 0.863 ± 0.021
